Tests used:
[1] = Selectivity of DOX release from c1 towards biological analytes (LCMS); format: physicochemical; conditions: 80 min
Description: FIG. 2. Percentage of released DOX from c1 in response to various biological analytes during an 80 min incubation period at room temperature: (1) ammonium bicarbonate buffer (0.1 M, pH 7.5), (2) 10 μM H2O2, (3) 100 μM cysteine, (4) 100 μM homocysteine, (5) 1 mM glutathione, (6) 10 μM glutathione disulfide, (7) 10 µM sodium nitrite, (8) 10 μM sodium hypochlorite, (9) 10 μM superoxide, (10) 10 μM peroxynitrite. A calibration curve was used to determine the concentration of free DOX in response to each analyte. Plotted as the mean±SEM from three independent experiments.
Selectivity of c1. […] After a reaction time of 80 min, an aliquot was removed and analyzed by LCMS. […]
Analyte stock solutions of glutathione (10 mM), oxidized glutathione (10 mM), homocysteine (10 mM), L-cysteine (10 mM), sodium nitrite (NaNO2 10 mM), superoxide (KO2, 10 mM), sodium peroxynitrite (NaOONO, 10 mM), and sodium hypochlorite (NaClO, 10 mM), were prepared in ammonium bicarbonate buffer (0.1 M pH 7.4). […] After reacting for 80 min, a 1 mL (inject volume 60 μL) aliquot was removed and analyzed by LC-MS (using a C18 analytical column and eluting at 0.4 mL/min with a linear gradient (20-90% v/v) MeOH/H2O (0-2 min), followed by 90% v/v MeOH/H2O (2-19 min)). The signals in the chromatogram were recorded at 500 nm and the peak corresponding to free DOX (7.0 min) was integrated.

H9C2 cardiomyoblasts = test: Uptake into H9C2 cardiomyoblasts by live-cell confocal microscopy; format: cell-based, rat
Description: FIG. 4. Uptake of DOX and prodrugs c1 and c2 by H9C2 cardiomyoblasts. H9C2 cells cultures grown overnight on chambered coverslips in media with 10% serum were switched to Fluorobrite DMEM imaging media supplemented with 5% serum and prepared for live-cell imaging on a Zeiss LSM 880 confocal microscope, then 10 µM of c1, c2, or DOX was added and images were taken every 10 min (averaged every 30 min) for 18 h. Approximately 20 cells present in each field of view were averaged for each sample and time point; normalized and averaged data from two replicates each±SEM were included for c1 and DOX. An earlier independent trial yielded very similar results (Fig. S1).
Uptake of DOX and prodrugs into H9C2 cardiomyoblasts. Before comparing the biological effects of treatments by DOX and prodrugs, it was important to know their time dependence of accumulation into the H9C2 cardiomyoblasts under investigation. For this, confocal microscopy of live cells in culture was used to track in real time the accumulation of the fluorescent molecules into the cells, allowing direct comparisons between c1, c2 and Dox. […] Thus, any biological effects observed using c1 rather than DOX will not be due to limited cellular uptake.
To evaluate drug uptake, H9C2 cells were plated at a density of 20,000 per well on 24 well #1.5 polymer chambered coverslips (Ibidi) in media including 10% FBS and allowed to adhere for ~20 h. Prior to imaging analysis, the media was replaced with Fluorobrite DMEM imaging media (Gibco) supplemented with 5% FBS. To 1 mL of media in each well was added either vehicle (DMSO), or a 20 mM stock solution of c1, c2, or DOX to give final concentrations of 10 or 20 µM drug and 0.1% DMSO. […] DOX and the prodrugs were detected with excitation by a 458 nm laser at 0.3% and emission from 535-648 nm.
Each position consisted of a 3 slice z-stack that was compressed with a maximum intensity projection for analysis. […] The mean intensity for both channels was calculated, normalized, and then averaged to 30 min time points.

caspase-3 = test: Caspase-3 cleavage immunoblot in H9C2 cells; conditions: 24 h
Description: FIG. 6. […] H9C2 cells in culture were treated for 24 hr with c1, c2, DOX or vehicle (DMSO), then harvested into lysis buffer and immunoblotted for caspase-3. Data analyzed by ImageJ were used to assess the percent of the two bands present as the lower band.
We next evaluated apoptotic signaling through caspase-3 cleavage at 24 h to compare the experimental compounds.
To evaluate levels of caspase cleavage (using an antibody recognizing both cleaved and uncleaved, Cell Signaling, cat #9662), Nrf2 (antibody from Thermo Fisher, cat #PA5-27882), and HO-1 (antibody from Proteintech, cat #10701-1-AP), H9C2 cells were plated at a density of 450,000 per well in a 24-well plate, then treated 24 h later with 10 or 20 µM DOX and incubated another 24 h before harvesting. For some samples, 100 mM hydroxocobalamin (HO-Cbl) was added 5 min before drug treatment. Cells were harvested by removing media (and recovering any non-adherent cells by centrifugation for 5 min at 10,600×g, discarding the supernatant), and combining that with the 120 μL of lysis buffer added to each well. Lysis buffer [50 mM Tris-HCl at pH 8.0, with 100 mM NaCl, 100 µM diethylene triamine pentaacetic acid (DTPA), 20 mM β-glycerophosphate, 0.1% SDS, 0.5% Na Desoxycholate, and 0.5% Triton-X-100] was prepared by freshly adding protease and phosphatase inhibitors before use (1 mM PMSF, 10 μg/mL aprotinin, 1 mM Na3VO4, 10 mM NaF and 10 μg/mL leupeptin). Samples were further incubated on ice for 30 min, then centrifuged at high speed (20,800×g for 10 min) to remove cell debris, and supernatants were mixed with 5×SDS protein sample buffer for Western blot analysis following resolution of 40 μg per sample on 10% SDS-polyacrylamide gels. Protein concentrations of supernatants were determined using a BCA assay (Pierce). Antibodies were used at dilutions of 1:1000 (for HO-1 and caspase-3) or 1:3000 (for Nrf2).

With `COc1cccc2c1C(=O)c1c(O)c3c(c(O)c1C2=O)C[C@@](O)(C(=O)CO)C[C@@H]3O[C@H]1C[C@H](NC(=S)OCc2ccc(B3OC(C)(C)C(C)(C)O3)cc2)[C@H](O)[C@H](C)O1` [c1] the “free DOX observed by LCMS” value ([1]; in the presence of H2O2 (10 μM)) was “significant levels of free DOX”, the “stability (DOX release)” value ([1]; buffer alone, reductants (cysteine, homocysteine, glutathione), other oxidants (glutathione disulfide, sodium nitrite, sodium hypochlorite, superoxide, peroxynitrite)) was “relatively stable” and the “time to maximal signal (cell accumulation)” value (H9C2 cardiomyoblasts; H9C2 cells, 10 μM, fluorescence) was ~ 2 h. For the same compound, the “accumulation in cells compared with DOX” value (H9C2 cardiomyoblasts; imaging over 18 h) was “accumulated rapidly”, the “caspase-3 cleavage with H2S scavenger hydroxocobalamin” value (caspase-3; H9C2, 10 μM drug, 100 mM hydroxocobalamin added 5 min prior) was “much more cleavage of caspase-3 than in its absence” and the caspase-3 cleavage (caspase-3; H9C2, 10 or 20 μM) was “neither c1 nor c2 at either 10 or 20 UM caused notable caspase-3 cleavage”.
